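Method: 48-hour compound exposure of cells in 96-well plates, five concentrations, linear interpolation of endpoints. TGI: total growth inhibition.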
Legend:
Assay in all cases: NCI anticancer screen, dose series, 48 h
OVCAR-8 ovarian = test system: OVCAR-8 ovarian
SR leukemia = test system: SR leukemia
UACC-257 melanoma = test system: UACC-257 melanoma
HT29 colon = test system: HT29 colon
786-0 renal = test system: 786-0 renal
OVCAR-4 ovarian = test system: OVCAR-4 ovarian
NCI/ADR-RES ovarian = test system: NCI/ADR-RES ovarian
MOLT-4 leukemia = test system: MOLT-4 leukemia
SNB-75 CNS = test system: SNB-75 CNS
IGROV1 ovarian = test system: IGROV1 ovarian
KM12 colon = test system: KM12 colon
LOX IMVI melanoma = test system: LOX IMVI melanoma
UACC-62 melanoma = test system: UACC-62 melanoma
SK-MEL-2 melanoma = test system: SK-MEL-2 melanoma
COLO 205 colon = test system: COLO 205 colon
SF-268 CNS = test system: SF-268 CNS
ACHN renal = test system: ACHN renal
T-47D breast = test system: T-47D breast

Row | SMILES | TGI (OVCAR-8 ovarian) [µM] | TGI (SR leukemia) [µM] | TGI (UACC-257 melanoma) [µM] | TGI (HT29 colon) [µM] | TGI (786-0 renal) [µM] | TGI (OVCAR-4 ovarian) [µM] | TGI (NCI/ADR-RES ovarian) [µM] | TGI (MOLT-4 leukemia) [µM] | TGI (SNB-75 CNS) [µM] | TGI (IGROV1 ovarian) [µM] | TGI (KM12 colon) [µM] | TGI (LOX IMVI melanoma) [µM] | TGI (UACC-62 melanoma) [µM] | TGI (SK-MEL-2 melanoma) [µM] | TGI (COLO 205 colon) [µM] | TGI (SF-268 CNS) [µM] | TGI (ACHN renal) [µM] | TGI (T-47D breast) [µM]
1 | N/N=C1\CCCc2c1no[n+]2[O-] | > 100 | > 100 | > 100 | > 100 | > 100 | > 100 | > 100 | > 100 | > 100 | > 100 | > 100 | > 100 | > 100 | > 100 | > 100 | > 100 | > 100 | 
2 | CN(C)c1ccc(/C=C(\NC(=O)c2ccccc2)C(=O)NC(CCC(=O)O)C(=O)O)cc1 (centres undefined) | > 100 |  | > 100 | > 100 | > 100 | > 100 | > 100 | > 100 | > 100 | > 100 | > 100 | > 100 | > 100 | > 100 | > 100 | > 100 | > 100 | > 100
3 | COc1ccc(/C=C/C(=O)N[C@@H]2C(=O)N3[C@@H]2SC(C)(C)[C@@H]3C(=O)O)cc1 | > 100 | > 100 | > 100 | > 100 | > 100 | > 100 | > 100 | > 100 | > 100 |  | > 100 | > 100 | > 100 | > 100 | > 100 | > 100 | > 100 | > 100
4 | O=C(NC1=NC2C=CC([N+](=O)[O-])=CC2S1)C(=O)Nn1c(=S)[nH]c2ccccc2c1=O (centres undefined) | > 100 |  | > 100 | > 100 | > 100 | > 100 | > 100 | > 100 | > 100 | > 100 | > 100 | > 100 | > 100 | > 100 |  | > 100 | 85.3 | > 100
5 | ClC1=C(Cc2ccccc2)Cc2ccc3c(c21)CCC3 | > 100 | 36.9 | 53.8 | 50.9 | 89.1 | > 100 |  | 39.8 |  | > 100 | 39.2 | 32.9 | 60.3 |  | 26.2 | > 100 | > 100 | 50.4
6 | COc1nc2sc3c(c2c(=O)n1CCCSSCCCn1c(OC)nc2sc4c(c2c1=O)CCCC4)CCCC3 | > 100 |  | > 100 | > 100 | > 100 | > 100 | > 100 | > 100 | > 100 | > 100 | > 100 | > 100 | > 100 | > 100 | > 100 |  | > 100 | > 100
7 | CC(NC(=O)OC(C)(C)C)C(=O)C(N)=O (centres undefined) | > 100 | > 100 |  |  | > 100 |  | > 100 | > 100 | > 100 |  |  | > 100 |  | > 100 | > 100 | > 100 | > 100 | > 100
8 | COc1cccc(/C=C2\CCCCCC2=O)c1 |  | > 100 | > 100 | > 100 | > 100 | > 100 |  | > 100 | > 100 | > 100 | > 100 | > 100 | > 100 | > 100 | > 100 | > 100 | > 100 | > 100
9 | CCOC(=O)[C@@]12CCC(C1=O)[C@](C)(O)C[C@@H]2c1ccccc1 | > 100 |  | > 100 | 73.2 | 68.8 | > 100 | > 100 | > 100 | > 100 | > 100 | > 100 | > 100 | > 100 | > 100 | > 100 | > 100 | > 100 | > 100
10 | FC(F)(Sc1ccccc1)c1nc2ccccc2o1 | > 100 | 73.7 | > 100 | > 100 | > 100 | > 100 | > 100 | 52.2 |  | > 100 | > 100 |  | > 100 | > 100 | > 100 | > 100 | > 100 | > 100
11 | O=c1ccn2n1CCCCC2 | > 100 | > 100 | > 100 | > 100 | > 100 | > 100 | > 100 | > 100 |  | > 100 | > 100 | > 100 | > 100 | > 100 | > 100 | > 100 | > 100 | > 100
12 | CC(=O)OCC1OC(n2c(N)c(C#N)c(-c3ccc(C)cc3)c(C#N)c2=S)C(OC(C)=O)C(OC(C)=O)C1OC(C)=O (centres undefined) | 28.5 |  | 39.7 | 39.1 | 29.2 | > 100 | 91.9 |  | 29.5 | 45.4 | > 100 | > 100 | > 100 | 28.5 | 29.4 | 28.5 | > 100 | 47.8
13 | COC(=O)C(Cc1ccccc1)OC(=O)C(N)CC(=O)O (centres undefined) | > 100 | > 100 | > 100 | > 100 | > 100 |  | > 100 | > 100 | > 100 | > 100 |  |  | > 100 | > 100 | > 100 | > 100 | > 100 | > 100
14 | O=C(CCc1cccc(O)c1)NCCc1ccc(O)cc1 | > 100 | > 100 | > 100 | > 100 | > 100 | > 100 | > 100 | > 100 |  | > 100 | > 100 | > 100 | > 100 | > 100 | > 100 | > 100 | > 100 | > 100
